“And” between values parts separate entries of the source, which are not always exact repeats. Equal values may be shown once.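 Tested at 5 concentrations; 48 h exposure; 96-well plates; endpoints linearly interpolated, else capped at highest concentration. Here, GI50 denotes the concentration required for 50% inhibition of growth. TGI: concentration producing complete growth inhibition.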
Assays:
Experiment in all cases: NCI-60 cell line screen, 48 h
[1] = test system: RXF 393 renal
[2] = test system: OVCAR-4 ovarian
[3] = test system: HOP-92 NSCLC
[4] = test system: MCF7 breast
[5] = test system: UACC-257 melanoma
[6] = test system: SK-MEL-2 melanoma
[7] = test system: SK-MEL-5 melanoma
[8] = test system: T-47D breast
[9] = test system: SK-MEL-28 melanoma
[10] = test system: COLO 205 colon

| Compound | GI50 [1] | TGI [1] | GI50 [2] | TGI [2] | GI50 [3] | TGI [3] | GI50 [4] | TGI [4] | GI50 [5] | TGI [5] | GI50 [6] | TGI [6] | GI50 [7] | TGI [7] | GI50 [8] | TGI [8] | GI50 [9] | TGI [9] | GI50 [10] | TGI [10] |
| --- | --- | --- | --- | --- | --- | --- | --- | --- | --- | --- | --- | --- | --- | --- | --- | --- | --- | --- | --- | --- |
| C[C@]12O[C@H](C[C@]1(O)CO)n1c3ccccc3c3c4c(c5c6ccccc6n2c5c31)CNC4=O | 0.0385 µM and 0.0189 µM | 0.622 µM and 0.649 µM | 0.891 µM and 1.4 µM | 4.99 µM and 7.19 µM | 0.0422 µM and 0.174 µM | 0.65 µM and 1.16 µM | 0.0774 µM and 0.0605 µM | 3.41 µM and 1.92 µM | 0.25 µM and 0.366 µM | 2.57 µM and 2.46 µM | 0.0196 µM and < 0.0117 µM | 3.73 µM and 1.78 µM | 0.398 µM and 0.0869 µM | 2.06 µM and 1.84 µM | 0.0791 µM and 0.337 µM | 1.55 µM and 2.16 µM | 0.0851 µM and 0.0854 µM | 1.12 µM and 1.36 µM | 0.0916 µM and 0.129 µM | 0.5 µM and 0.87 µM |
| O=NC1c2cccc3cccc(c23)C1N=O (stereo unspecified) |  | 14.1 µM |  | 3.56 µM |  | 24.5 µM |  | 25.8 µM |  | 27.5 µM |  |  |  | 30.7 µM |  | > 100 µM |  |  |  | 17.2 µM |
| CN(C)C[C@H]1CC[C@@H](CN(C)C)C1=O |  | 16.8 µM |  | 16.3 µM |  | 20.5 µM |  | 6.19 µM |  | 16 µM |  | 15.4 µM |  | 23.6 µM |  | 23.6 µM |  | 12.2 µM | 0.759 µM | 11.3 µM |
| CC1(C)CCC[C@]23C(=O)O[C@](O)(C(=O)C4=C[C@@](C)(/C=C/CCCc5ccc6ccc7cccc8ccc5c6c78)CC[C@@]42O)[C@@H]13 | 0.174 µM | 0.335 µM | 0.259 µM | 0.616 µM | 0.148 µM | 0.302 µM |  |  | 0.224 µM | 0.586 µM | 0.217 µM | 0.471 µM | 0.185 µM | 0.327 µM | 0.167 µM | 0.422 µM | 0.144 µM | 0.317 µM | 0.183 µM | 0.383 µM |
| COc1ccc(/C=C/c2c(C(=O)/C=C/c3ccc(Cl)cc3)c(C)nc3ccccc23)cc1 | 1.78 µM | 3.34 µM | 1.75 µM | 3.97 µM |  |  | 1.29 µM | 4.11 µM | 2.09 µM | 4.55 µM | 1.83 µM | 4.06 µM | 1.72 µM | 3.11 µM | 1.7 µM | 5.72 µM | 1.81 µM | 3.42 µM | 2.13 µM | 5.29 µM |
| O=P(Oc1ccc(Cl)cc1)(Oc1ccc(Cl)cc1)N1CC1 |  |  |  | > 10 µM |  |  |  | > 10 µM |  | > 10 µM |  | > 10 µM |  | > 10 µM |  | > 10 µM |  | > 10 µM |  | > 10 µM |
| O=C(CC(=O)N1N=C(c2ccccc2)C(N=Nc2ccc(C(=O)O)cc2)C1=O)Nc1ccc(F)cc1 (stereo unspecified) |  | 25.3 µM |  | > 100 µM |  | > 100 µM |  |  |  | > 100 µM |  | 41.8 µM |  | 46.9 µM |  |  |  | > 100 µM |  | > 100 µM |
| S=c1nc(-c2ccccc2)oc(=NC2CCCCC2)n1C1CCCCC1 |  |  | 5.56 µM | 61 µM |  | 0.079 µM | 3.2 µM | 12.2 µM | 2.31 µM | 5.98 µM | 4.51 µM | 17.8 µM | 2.62 µM | 9.87 µM | 3.85 µM | 21.4 µM | 14.3 µM | 30.2 µM | 2.11 µM | 4.22 µM |
| Cn1c2c([N+](=O)[O-])[se]nc2c(=O)n1-c1ccc([N+](=O)[O-])cc1 |  | 2.21 µM |  | 0.909 µM |  | 3.37 µM |  |  |  | 4.17 µM |  | 11.2 µM |  | 14.6 µM |  |  |  | 4.39 µM |  | 4.23 µM |

Reference: PubChem BioAssay (NCI)
